We go through six molecules from patent US20230348371A1, “SULFONYLUREA DERIVATIVE AND MEDICAL USES THEREOF” (SHANGHAI SENHUI MEDICINE CO., LTD., priority 2020, published 2023).

Each structure is given as a SMILES string. Read-outs that look alike come from different tables or passages of the source.

Data set [1] has as its target SUR1 receptor (Homo sapiens (Human), UniProt Q09428). Description: Binding activity for SUR1 receptor ([3H]-Glibenclamide displacement, SUR1 membrane). Particulars: SUR1 membrane protein, [3H]-Glibenclamide 2 nM, 37° C. 1 h. The procedure: The plate was incubated at 4° C. for 1 h. • f) The […]-96 GF/C and […]-96 GF/B plates were washed twice with Universal Harvester, each time with 50 mL of washing solution. • g) The SUR1 receptor reaction system was transferred to a […]-96 GF/B plate with Universal Harvester, and 900 μL of washing solution was added to each well to wash the GF/B plate 4 times. The washed […]-96 GF/B plate was dried in an oven at 55° C. for 10 min. • h) 40 μL of ULTIMA GOLD scintillation solution was added to each well, and the plate was read using Microbeta.

Data set [2] can be described thus: In vivo pharmacokinetics after single intravenous injection in SD rats (plasma). Conditions: rat, single IV 5 mg/kg; for Vd: iv, 5 mg/kg; for MRT last: read-out: MRT(0-t); for MRT inf: read-out: MRT(0-∞). The procedure:
1. […] The mixture was stirred or sonicated until completely dissolved to obtain a clear solution at a concentration of 1 mg/mL for administration by intravenous injection.
2. An appropriate amount of compound 3 or compound 6 was accurately weighed, and an appropriate volume of 5% DMSO+20% PG+20% PEG400+55% PBS (pH 8.0) was added thereto. The mixture was stirred or sonicated until completely dissolved to obtain a clear solution at a concentration of 1 mg/mL for administration by intravenous administration.
SPF grade SD rats, source: animals were transferred from the laboratory animal reserve bank (999M-017), Shanghai Sippe-Bk Lab Animal Co., Ltd.
3 rats/time point was set, blood samples were collected from the first 3 rats in each group, and cerebrospinal fluid and brain tissue were collected from the last 3 rats in each group. Blood sample: before administration and 5 min, 0.25 h, 0.5 h, 1 h, 1.5 h, 2 h, 4 h, 6 h, 8 h, 12 h and 24 h after administration. Tissue sample: cerebrospinal fluid and brain tissue were collected 10 min after administration.
Blood sample: blood was collected via jugular vein or other suitable means, and about 0.20 mL of blood was collected from each rat and added into an EDTA-K2 anticoagulation tube, which was then placed on ice after collection and centrifuged within 2 h for plasma separation (centrifugation conditions: 6800 g, 6 min, 2-8° C.). The collected plasma samples were stored in a refrigerator at −70° C. before analysis, and the residual plasma samples after analysis were still stored in the refrigerator at −70° C. for subsequent processing according to the requirements of the sponsor.
The concentration of each test compound in the plasma and tissue samples was determined. The accuracy of quality control samples was evaluated while analyzing the samples, and more than 66% of the quality control samples were required to have an accuracy between 80% and 120%.
The pharmacokinetic parameters such as AUC(0-t), T½, Cmax, Tmax and MRT were calculated from plasma concentration data at different time points using WinNonlin.
When plasma drug concentration-time curves were plotted, BLQ was recorded as 0. When the pharmacokinetic parameters were calculated, the concentration before administration was calculated as 0; BLQ before Cmax (including “No peak”) was calculated as 0; and BLQ that occurs after Cmax (including “No peak”) was excluded from the calculation.

Setting [3] is: Sprague-Dawley (SD), read-out: Vss.
Setting [4] is: Sprague-Dawley (SD), read-out: Vz.

Sequence of SUR1 receptor (Q09428 whole entry): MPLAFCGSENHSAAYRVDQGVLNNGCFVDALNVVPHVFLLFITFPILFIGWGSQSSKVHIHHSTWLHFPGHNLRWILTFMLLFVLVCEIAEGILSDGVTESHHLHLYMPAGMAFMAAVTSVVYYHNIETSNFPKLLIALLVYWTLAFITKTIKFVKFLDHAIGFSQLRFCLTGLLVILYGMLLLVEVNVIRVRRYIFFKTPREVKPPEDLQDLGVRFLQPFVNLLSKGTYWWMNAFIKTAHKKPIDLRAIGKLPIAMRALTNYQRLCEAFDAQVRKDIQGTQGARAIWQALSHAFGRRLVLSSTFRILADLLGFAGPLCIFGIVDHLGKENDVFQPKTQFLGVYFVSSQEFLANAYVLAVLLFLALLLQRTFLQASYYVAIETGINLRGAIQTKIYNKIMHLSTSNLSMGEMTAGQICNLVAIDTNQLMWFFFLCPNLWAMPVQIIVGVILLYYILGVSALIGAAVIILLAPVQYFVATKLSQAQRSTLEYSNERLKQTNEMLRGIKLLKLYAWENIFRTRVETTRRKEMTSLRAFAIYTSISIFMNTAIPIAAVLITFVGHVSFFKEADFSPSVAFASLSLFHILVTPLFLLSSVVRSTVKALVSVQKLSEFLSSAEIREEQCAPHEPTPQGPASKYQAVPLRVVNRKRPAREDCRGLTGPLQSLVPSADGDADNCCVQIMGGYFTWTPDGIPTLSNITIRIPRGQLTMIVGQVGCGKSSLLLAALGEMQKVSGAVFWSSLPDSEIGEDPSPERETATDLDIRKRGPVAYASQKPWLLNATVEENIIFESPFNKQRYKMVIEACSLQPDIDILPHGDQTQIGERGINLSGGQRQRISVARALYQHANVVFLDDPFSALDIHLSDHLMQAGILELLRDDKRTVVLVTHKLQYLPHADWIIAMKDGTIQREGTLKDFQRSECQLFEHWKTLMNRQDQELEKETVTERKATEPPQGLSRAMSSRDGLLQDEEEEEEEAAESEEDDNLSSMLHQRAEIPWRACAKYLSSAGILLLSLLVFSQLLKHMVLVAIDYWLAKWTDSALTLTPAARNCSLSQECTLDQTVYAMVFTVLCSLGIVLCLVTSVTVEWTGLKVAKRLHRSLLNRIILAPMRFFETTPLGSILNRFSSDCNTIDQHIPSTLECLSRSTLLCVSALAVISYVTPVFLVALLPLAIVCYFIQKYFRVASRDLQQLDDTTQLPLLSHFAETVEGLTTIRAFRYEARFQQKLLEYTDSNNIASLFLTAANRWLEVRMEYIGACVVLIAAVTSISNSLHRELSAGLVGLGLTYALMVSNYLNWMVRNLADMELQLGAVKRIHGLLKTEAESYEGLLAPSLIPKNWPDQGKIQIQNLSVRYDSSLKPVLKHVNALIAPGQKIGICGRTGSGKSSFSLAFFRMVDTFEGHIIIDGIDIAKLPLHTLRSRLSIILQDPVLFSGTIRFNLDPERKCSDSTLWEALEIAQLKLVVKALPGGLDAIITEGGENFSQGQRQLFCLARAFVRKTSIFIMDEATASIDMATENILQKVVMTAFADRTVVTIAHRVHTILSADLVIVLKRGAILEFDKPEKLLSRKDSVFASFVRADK

The molecule `Cc1cnc(C(=O)NCCc2ccc(S(=O)(=O)NC(=O)NC3CCCCC3)cc2)cn1` [Glipizide, reference compound] showed a 50% inhibitory concentration (IC50) in data set [1] of 230 nM.

Take `O=C(NC1CCCCC1)NS(=O)(=O)c1ccc(CCNC(=O)c2cc(Cl)ccc2OC(F)(F)F)cc1` [Compound 3, 5-chloro-N-(4-(N-(cyclohexylcarbamoyl)sulfamoyl)phenethyl)-2-(trifluoromethoxy)benzamide]: the Vd in data set [2] (setting [3]) turned out to be 0.303 ± 0.0141 L/kg. Further, the Vd in data set [2] (setting [4]) stood at 0.51 ± 0.0307 L/kg. In data set [2] (Sprague-Dawley (SD)), the AUC(0-inf) is 36400 ± 1170 ng·h/mL, the AUC(0-t) was 35700 ± 1130 ng·h/mL, the Cmax stood at 32800 ± 1530 ng/mL and the Tmax worked out at 6 min. In data set [2] (Sprague-Dawley (SD)), the half-life is 2.6 ± 0.1 h, the MRT last was found to be 1.9 ± 0.1 h and the MRT inf was 2.2 ± 0.1 h. Also, the IC50 in data set [1] was 159 nM.

Regarding `COc1ccc(Cl)cc1C(=O)NCCc1ccc(S(=O)(=O)NC(=O)N[C@H]2CC[C@H](O)CC2)cc1` [Compound 4, 5-chloro-N-(4-(N-(((1r,4r)-4-hydroxycyclohexyl)carbamoyl)sulfamoyl)phenethyl)-2-methoxybenzamide], the Vd in data set [2] (SD, read-out: Vss) came out at 0.119 ± 0.0123 L/kg. In data set [2] (SD, read-out: Vz), the Vd is 1.66 ± 1.73 L/kg. In addition, in data set [2], the area under the curve AUC(0-inf) turned out to be 13000 ± 1480 ng·h/mL, the area under the curve AUC(0-t) was 12900 ± 1460 ng·h/mL, the Cmax was 39600 ± 4730 ng/mL and the Tmax worked out at 6 min. Moreover, in data set [2], the half-life is 3.1 ± 3.4 h, the MRT last stood at 0.3 ± 0.1 h and the MRT inf was determined as 0.3 ± 0.1 h.

Regarding `COc1ccc(Cl)cc1C(=O)NCCc1ccc(S(=O)(=O)NC(=O)N[C@@H]2CCCC[C@H]2C#N)cc1` [Compound 6, 5-chloro-N-(4-(N-(((1R,2R)-2-cyanocyclohexyl)carbamoyl)sulfamoyl)phenethyl)-2-methoxybenzamide], the Vd in data set [2] (setting [3]) was found to be 3.44 ± 4.53 L/kg. Also, in data set [2] (setting [4]), the Vd amounted to 14.6 ± 19.1 L/kg. Further, in data set [2] (Sprague-Dawley (SD)), the AUC(0-inf) came to 4980 ± 288 ng·h/mL, the area under the curve AUC(0-t) came to 4660 ± 259 ng·h/mL, the maximum concentration (Cmax) stood at 11800 ± 1060 ng/mL and the Tmax worked out at 6 min. Further, in data set [2] (Sprague-Dawley (SD)), the half-life is 5.4 ± 2.1 h, the MRT last came to 0.7 ± 0.1 h and the MRT inf came to 3.6 ± 4.8 h. In data set [1], the IC50 stood at 37 nM.

Take `COc1ccc(C#N)cc1C(=O)NCCc1ccc(S(=O)(=O)NC(=O)NC2CCCCC2)cc1` [Compound 7, 5-cyano-N-(4-(N-(cyclohexylcarbamoyl)sulfamoyl)phenethyl)-2-methoxybenzamide]: the Vd in data set [2] (setting [3]) worked out at 0.193 ± 0.0469 L/kg. Besides, in data set [2] (setting [4]), the Vd amounted to 0.5 ± 0.16 L/kg. Besides, in data set [2] (Sprague-Dawley (SD)), the AUC(0-inf) was 28600 ± 7920 ng·h/mL, the AUC(0-t) came out at 28500 ± 7930 ng·h/mL, the Cmax was determined as 42400 ± 8440 ng/mL and the Tmax came out at 6 min. In data set [2] (Sprague-Dawley (SD)), the half-life is 1.9 ± 0.2 h, the MRT last was found to be 1 h and the MRT inf worked out at 1.1 h. In addition, in data set [1], the half-maximal inhibitory concentration (IC50) was determined as 6 nM.

Consider `O=C(NC1CCCCC1)NS(=O)(=O)c1ccc(CCNC(=O)c2cc(Cl)ccc2O)cc1` [Compound 1, 5-chloro-N-(4-(N-(cyclohexylcarbamoyl)sulfamoyl)phenethyl)-2-hydroxybenzamide], for which the Vd in data set [2] (setting [3]) amounted to 0.219 ± 0.0263 L/kg. The Vd in data set [2] (setting [4]) was 1 ± 0.202 L/kg. Besides, in data set [2] (Sprague-Dawley (SD)), the total exposure AUC(0-inf) came out at 28700 ± 4700 ng·h/mL, the AUC(0-t) stood at 28200 ng·h/mL, the concentration peaked (Cmax) at 65000 ± 3630 ng/mL and the Tmax came to 6 min. In data set [2] (Sprague-Dawley (SD)), the half-life was 3.9 ± 0.6 h, the MRT last was 0.9 ± 0.3 h and the MRT inf amounted to 1.2 ± 0.1 h.
